Assay results from ChEMBL document CHEMBL1143204, “Syntheses and in vitro evaluation of arylsulfone-based MMP inhibitors with heterocycle-derived zinc-binding groups (ZBGs)” (Bioorg Med Chem Lett, 2008).

How the values were obtained:
[1] = target: Matrix metalloproteinase-9 (Homo sapiens, UniProt P14780); assay: Inhibition of MMP9
[2] = target: 72 kDa type IV collagenase (Homo sapiens, UniProt P08253); assay: Inhibition of MMP2
Interstitial collagenase = target: T1, Interstitial collagenase (Homo sapiens, UniProt P03956); assay: Inhibition of MMP1
T1 sequence (P03956 whole entry): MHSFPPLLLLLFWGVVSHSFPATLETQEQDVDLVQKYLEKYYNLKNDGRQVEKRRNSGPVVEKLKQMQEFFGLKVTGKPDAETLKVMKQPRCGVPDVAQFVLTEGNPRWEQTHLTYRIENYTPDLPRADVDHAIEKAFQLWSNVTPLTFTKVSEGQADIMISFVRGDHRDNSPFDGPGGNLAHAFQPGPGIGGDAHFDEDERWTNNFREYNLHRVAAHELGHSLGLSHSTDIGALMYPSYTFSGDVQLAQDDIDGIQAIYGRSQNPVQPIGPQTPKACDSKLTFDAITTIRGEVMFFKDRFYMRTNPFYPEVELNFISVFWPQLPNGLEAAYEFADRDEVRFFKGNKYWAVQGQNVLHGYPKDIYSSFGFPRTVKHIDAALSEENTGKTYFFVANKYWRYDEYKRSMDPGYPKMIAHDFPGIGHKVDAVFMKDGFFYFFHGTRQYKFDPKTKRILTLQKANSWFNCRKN

Stromelysin-1 = Stromelysin-1 (Homo sapiens, UniProt P08254); assay: Inhibition of MMP3
Collagenase 3 = Collagenase 3 (Homo sapiens, UniProt P45452); assay: Inhibition of MMP13

Matrix metalloproteinase-9, sequence (P14780 whole entry): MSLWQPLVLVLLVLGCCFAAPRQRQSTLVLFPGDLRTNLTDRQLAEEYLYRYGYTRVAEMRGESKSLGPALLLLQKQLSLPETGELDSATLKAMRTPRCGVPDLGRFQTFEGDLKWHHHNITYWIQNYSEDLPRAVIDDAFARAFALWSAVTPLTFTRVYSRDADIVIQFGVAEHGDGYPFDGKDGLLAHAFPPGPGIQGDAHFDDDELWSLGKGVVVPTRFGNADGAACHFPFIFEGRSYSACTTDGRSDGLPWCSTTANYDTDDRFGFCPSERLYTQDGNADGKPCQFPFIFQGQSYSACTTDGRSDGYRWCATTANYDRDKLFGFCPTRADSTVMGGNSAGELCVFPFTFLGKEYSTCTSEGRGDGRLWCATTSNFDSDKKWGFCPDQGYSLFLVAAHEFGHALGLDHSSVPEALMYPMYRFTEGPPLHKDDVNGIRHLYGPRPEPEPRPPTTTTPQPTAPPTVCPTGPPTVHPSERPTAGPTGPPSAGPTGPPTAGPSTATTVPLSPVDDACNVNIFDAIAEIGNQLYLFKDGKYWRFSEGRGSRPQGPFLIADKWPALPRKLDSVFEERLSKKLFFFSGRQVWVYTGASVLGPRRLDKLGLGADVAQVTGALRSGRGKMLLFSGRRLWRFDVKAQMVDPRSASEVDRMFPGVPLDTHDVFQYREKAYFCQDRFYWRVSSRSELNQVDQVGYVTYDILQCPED
72 kDa type IV collagenase, sequence (P08253 whole entry): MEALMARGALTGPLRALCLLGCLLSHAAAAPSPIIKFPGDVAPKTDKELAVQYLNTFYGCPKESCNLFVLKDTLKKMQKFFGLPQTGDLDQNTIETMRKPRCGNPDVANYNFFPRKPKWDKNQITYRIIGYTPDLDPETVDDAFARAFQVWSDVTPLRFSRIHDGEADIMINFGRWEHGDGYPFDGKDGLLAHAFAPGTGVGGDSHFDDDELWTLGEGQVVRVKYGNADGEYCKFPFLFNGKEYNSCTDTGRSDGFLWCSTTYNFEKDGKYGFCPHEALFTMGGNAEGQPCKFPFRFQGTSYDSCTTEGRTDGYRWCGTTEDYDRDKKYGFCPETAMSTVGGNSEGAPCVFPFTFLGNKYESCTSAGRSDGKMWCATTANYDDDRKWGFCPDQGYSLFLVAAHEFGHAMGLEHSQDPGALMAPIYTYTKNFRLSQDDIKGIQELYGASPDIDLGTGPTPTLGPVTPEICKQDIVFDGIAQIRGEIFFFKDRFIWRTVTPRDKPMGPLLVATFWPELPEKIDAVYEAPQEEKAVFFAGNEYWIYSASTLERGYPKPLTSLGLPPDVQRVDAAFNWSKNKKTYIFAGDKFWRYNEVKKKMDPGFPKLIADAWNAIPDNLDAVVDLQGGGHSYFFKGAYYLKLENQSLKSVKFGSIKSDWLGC
Stromelysin-1, sequence (P08254 whole entry): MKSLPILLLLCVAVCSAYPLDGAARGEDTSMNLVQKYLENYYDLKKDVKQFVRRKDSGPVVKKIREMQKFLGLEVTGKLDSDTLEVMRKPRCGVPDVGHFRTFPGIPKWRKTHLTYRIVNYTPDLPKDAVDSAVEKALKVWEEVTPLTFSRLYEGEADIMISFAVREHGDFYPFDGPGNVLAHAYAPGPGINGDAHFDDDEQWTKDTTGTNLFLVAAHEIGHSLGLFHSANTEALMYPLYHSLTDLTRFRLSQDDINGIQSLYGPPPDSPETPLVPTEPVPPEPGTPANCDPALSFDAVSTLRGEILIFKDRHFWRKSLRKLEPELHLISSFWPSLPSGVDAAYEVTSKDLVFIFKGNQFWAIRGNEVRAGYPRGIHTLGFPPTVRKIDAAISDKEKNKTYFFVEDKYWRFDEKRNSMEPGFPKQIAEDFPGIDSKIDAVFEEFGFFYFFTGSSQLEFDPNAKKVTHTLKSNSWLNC

Compound	IC50 [1]	IC50 [2]	IC50 (Interstitial collagenase)	IC50 (Stromelysin-1)	IC50 (Collagenase 3)
COc1ccc(-c2ccc(S(=O)(=O)Cn3cccc(O)c3=O)cc2)cc1	> 1000 nM	> 1000 nM	–	–	–
COc1ccc(Oc2ccc(S(=O)(=O)C3CCCCCN(O)C3=O)cc2)cc1 (stereo unspecified)	> 1000 nM	> 1000 nM	–	–	–
O=c1c(O)cccn1CS(=O)(=O)c1ccc(Oc2ccc(OC(F)(F)F)cc2)cc1	4 nM	12.6 nM	> 1000 nM	203 nM	7.3 nM
COc1ccc(-c2ccc(S(=O)(=O)C3CCCCN(O)C3=O)cc2)cc1 (stereo unspecified)	> 1000 nM	> 1000 nM	–	–	–
COc1ccc(Oc2ccc(S(=O)(=O)Cc3cccn(O)c3=O)cc2)cc1	–	–	> 1000 nM	308 nM	13.4 nM

Continued, in another order:

IC50 [1]	IC50 [2]	Compound	IC50 (Interstitial collagenase)	IC50 (Stromelysin-1)	IC50 (Collagenase 3)
809 nM	–	Cc1ccc(S(=O)(=O)Cn2cccc(O)c2=O)cc1	–	–	–
16.4 nM	10.6 nM	O=c1c(O)cccn1CS(=O)(=O)c1ccc(Oc2ccc(Cl)cc2)cc1	–	–	–
21.1 nM	36.8 nM	O=C1[C@H](CS(=O)(=O)c2ccc(Oc3ccccc3)cc2)NCCCN1O	> 1000 nM	964 nM	11 nM
21.5 nM	59.4 nM	O=C1C(S(=O)(=O)c2ccc(Oc3ccc(OC(F)(F)F)cc3)cc2)CCCCN1O (stereo unspecified)	–	–	–
13.9 nM	72 nM	COc1ccc(Oc2ccc(S(=O)(=O)Cn3cccc(O)c3=O)s2)cc1	–	–	–
